Bridge positions count the residues as written; N and C are the ends. Square brackets hold non-standard residues; d marks the D form. Peptide text beside a SMILES is read from it. S5 = C=CCCC[C@](C)(N)C(=O)O; Nle = CCCC[C@H](N)C(=O)O

The experiment concerns the target T1, flag-tagged HIF1α (AA 786-826) / His6-tagged p300 (AA 323-423) complex (Homo sapiens, UniProt Q09472).
T1 construct: His6-tagged p300 (AA 323-423); made in house; host or cells: E. coli (pETDuet vector)
Description: HIF1α p300 displacement assay (TR FRET, +CHAPS). The following applies: read-out: IC50 (nM) (HIF1α_p300 Displacement + CHAPS). The format is binding. On the procedure:
The ability of peptides to displace HIF1α c-terminal trans-activation domain from p300-CH was measured by a TR FRET assay. A complex of flag-tagged HIF1α (AA 786-826) and His6-tagged p300 (AA 323-423) was co-expressed using pETDuet vector (EMDMillipore, Bellrica Mass.) and purified from E. coli in the presence of 0.1 mM ZnSO4. The complex was diluted to 300 nM final in complete assay media and competitor peptides were added. The complete assay media contained 150 mM NaCl (Sigma +S5150 or equivalent), 20 mM HEPES pH 7.4 (Boston Bioproducts, Ashland, Mass.; #BB-2076), 7.5 mM CHAPS (Thermo #28300 or equivalent), and 1 mM DTT. Protein and peptide were incubated at room temperature for 1 hour before the addition of anti-Flag-K and anti-6×HIS-D2 (CisBio, Bedford Mass.) HTRF reconstitution buffer (50 mM Phosphate pH 7, 0.8 Potassium Flouride, BSA 0.2%)^1 to a final concentration of 0.5 μM and 4 nM respectively. […] The reaction was read on a TECAN F500 plate reader with settings recommended by CisBio. The ratio of donor to acceptor fluorescence was calculated. The resulting data was analyzed with Graphpad Prism 5.0. IC50 values were calculated for both proteins using the One Site Fit-LogIC50 equation and presented in the column “IC50 (nM) (HIF1α_p300 Displacement+CHAPS)” of Table 6. ^1 Cisbio USA, Bedford, Mass.; 61HISDLB (lot 007A), 61FG2KLB (024A), HTRF Buffer (62RB3RDF)
For orientation: TR-FRET usually uses a lanthanide donor and a delayed reading to cut background.

For the compound `CCCC[C@H](NC(=O)[C@H](C)NC(=O)[C@@H](NC(=O)[C@@H](NC(=O)[C@H](CC(C)C)NC(=O)[C@]1(C)CCCC=CCCC[C@](C)(NC(=O)[C@H](CCC(=O)O)NC(=O)[C@H](CC(=O)O)NC(=O)[C@@H](NC(=O)[C@H](Cc2ccccc2)NC(C)=O)[C@@H](C)CC)C(=O)N[C@@H](C(C)C)C(=O)N[C@@H](CC(C)C)C(=O)N[C@@H](CCCC)C(=O)N1)C(C)C)[C@@H](C)CC)C(=O)N[C@@H](C)C(=O)N[C@@H](CC(C)C)C(=O)N[C@@H](CO)C(=O)N[C@@H](CO)C(=O)N[C@H](C(N)=O)[C@@H](C)CC` [SP-129] (Ac-FIDE[S5]VL[Nle][S5]LVIA[Nle]ALSSI-NH2; staple 5-9), the IC50 (in general, the concentration at which inhibition is half-maximal) is above 700 nM.
